# Counter-ions that a name gives are not always drawn.
# System: MLO-Y4 osteocytes
# Assay: High-throughput drug screening of primary cilia length and incidence
# Type: cell-based
# Details: 10 μM, 16 hours, triplicate; normalized to vehicle control; standard deviation away from the population average
# Procedure: MLO-Y4 osteocytes were maintained on collagen I-coated dishes in MEMα (Life_Technologies) supplemented with 5% fetal bovine serum (FBS), 5% calf serum (CS), and 1% penicillin/streptomycin (P/S) at 37° C. and 5% CO2. Osteocytes were then seeded onto 384-well collagen-coated plates for 72 hours before fixation. […] These libraries include Tocris, Sigma LOPAC, Selleck Chemical, Prestwick, and Spectrum commercially available compound libraries. All cell seeding and plate handling was performed with the Perkin Elmer cell:explorer workstation.
# Cells were fixed in 4% paraformaldehyde and permeabilized with 0.1% Triton-X 100 (Sigma). 10% goat serum (vendor) was used for blocking. Cilia were stained using a monoclonal antibody against acetylated α-tubulin (1:20) from a C3B9 hybridoma cell line, and visualized with A F488 (1:1000, ThermoFisher). Nuclei were visualized with Hoechst. Cells were imaged using a GE INCell 2000 high-throughput imager at 40× magnification. 4 fields of view were taken per well.
# Each pair of nuclei and cilia images was first analyzed individually, then the entire population was examined to evaluate each compound's effect on cilia length and incidence. A custom MATLAB script was developed to perform all image analysis. This script first utilizes an enhanced implementation of a watershed transform, which is a segmentation tool which enables detection of similarly shaped overlapping particles in noisy images by the procedural whittling down of pixels found close to the edge of such particles. The augmentation of the algorithm incorporates thresholding for noise removal based on signal intensity and object size, nuclei dilation to exclude non-cellular artifacts, as well as skeletonization of cilia to quantify length. The results of the analysis are number of nuclei, number of cilia, and average cilia length in each image.
# Compounds were selected based on deviation from the population mean. Each well was normalized to vehicle control images on each plate, allowing the establishment of a normalized population mean. Hits were chosen based on compounds whose triplicate mean was furthest (based on standard deviation away) from the population mean. […] Compounds were classified based on mechanism of action.
# To identify compounds that modulate primary cilia formation a high-throughput platform was developed to automate cell culture, staining, imaging, and analysis, as shown in schematic form in FIG. 18. […] Cells were cultured on 384-well plates, and treated with small molecules with known biologic activity, enabling classification of mechanisms of action. Drug treatment was applied for 16 hours at 10 μM concentration, performed in triplicate, before fixation and immunostaining of primary cilia. Cells were then imaged using the GE INCell 2000 High Content Analyzer, capturing 4 fields of view per well at 40× magnification. Additionally, each plate contains 8 wells of DMSO vehicle control.
# A MATLAB script was developed to detect and analyze changes in ciliogenesis. […] A representative exemplary image (FIG. 19A) is cropped to better display features, scale bar represents 30 μm. A custom MATLAB script was used to identify nuclei and cilia for analysis (FIG. 19B). […] Objects are further filtered based on size and signal intensity.
# Cilia length and incidence for each field of view were normalized to vehicle control on that individual plate. This allowed development of a normalized population average and standard deviation. […] To control for toxic effects only small molecules with at least 40% viability, based on number of nuclei versus control, were selected as hits. Furthermore, compounds repeated between multiple libraries eliciting the same effect on cilia length or incidence were excluded, such that only one of the repeated compounds was selected as a hit.
SMILES,Average Incidence SD Away [SD],Average Length SD Away [SD]
"Cc1cccc([C@H](C)c2cnc[nH]2)c1C [Dexmedetomidine HCl (Precedex), Dexmedetomidine HCl]",2.924,–
"O=C[C@H](O)[C@@H](O)[C@H](O)[C@H](O)CO [Dextrose (D-glucose), D-glucose]",1.518,–
N#CC(c1ccc(Cl)cc1)c1c(Cl)cc(-n2ncc(=O)[nH]c2=O)cc1Cl (stereo not shown) [Diclazuril],1.668,–
"CN(C)CCOC(c1ccccc1)c1ccccc1 [Diphenhydramine HCl (Benadryl), Diphenhydramine HCl]",1.928,–
c1ccc2c(c1)[I+]c1ccccc1-2 [Diphenyleneiodonium chloride],–,2.603
"OCCN(CCO)c1nc(N2CCCCC2)c2nc(N(CCO)CCO)nc(N3CCCCC3)c2n1 [Dipyridamole (Persantine), Dipyridamole]",2.055,–
CC(=O)O[C@@]12CO[C@@H]1C[C@H](O)[C@@]1(C)C(=O)[C@H](O)C3=C(C)[C@@H](OC(=O)[C@H](O)[C@@H](NC(=O)OC(C)(C)C)c4ccccc4)C[C@@](O)([C@@H](OC(=O)c4ccccc4)[C@H]21)C3(C)C [Docetaxel],–,3.416
CCN[C@H]1C[C@H](C)S(=O)(=O)c2sc(S(N)(=O)=O)cc21 [Dorzolamide HCL],–,2.205
Cc1cc(Cl)ccc1OCCCC(=O)NO [Droxinostat],2.26,2.91
C[C@]12CC[C@@H]3c4ccc(O)cc4CC[C@H]3[C@@H]1CC[C@@H]2OC(=O)CCC1CCCC1 [ESTRADIOL CYPIONATE],–,1.56
"CC1=NN(c2ccccc2)C(=O)C1 [Edaravone (MCI-186), Edaravone]",1.537,–
CCOc1ccc2nc3cc(N)ccc3c(N)c2c1 [Ethacridine lactate monohydrate],–,2.114
"CC(C)OC(=O)C(C)(C)Oc1ccc(C(=O)c2ccc(Cl)cc2)cc1 [Fenofibrate (Tricor Trilipix), Fenofibrate]",2.95,–
CC(C(=O)[O-])c1cccc(Oc2ccccc2)c1.CC(C(=O)[O-])c1cccc(Oc2ccccc2)c1.[Ca+2] (stereo not shown) [Fenoprofen calcium],3.368,–
O=c1[nH]c(=O)n([C@H]2C[C@H](O)[C@@H](CO)O2)cc1F [Floxuridine],1.58,1.672
"CC(C)C(=O)Nc1ccc([N+](=O)[O-])c(C(F)(F)F)c1 [Flutamide (Eulexin), Flutamide]",2.035,–
CN(CCOc1ccc(C[C@H](Nc2ccccc2C(=O)c2ccccc2)C(=O)O)cc1)c1ccccn1 [GW 1929],–,1.65
COC(=O)C1=CO[C@@H](O[C@@H]2O[C@H](CO)[C@@H](O)[C@H](O)[C@H]2O)[C@@H]2C(CO)=CC[C@H]12 [Geniposide],4.335,–
O=c1c(-c2ccc(O)cc2)coc2cc(O)cc(O)c12 [Genistein],1.524,–
CC1C(=O)OC2C(O)C34C5CC(C(C)(C)C)C36C(OC(=O)C6O)OC4(C(=O)O5)C12O (stereo not shown) [Ginkgolide B],–,1.581
CC1=NCCc2c1[nH]c1cc(O)ccc21.Cl [HARMALOL HYDROCHLORIDE],–,1.629
CC(=O)O[C@H]1CC[C@@]2(C)[C@@H](CC[C@@H]3[C@@H]2CC(=O)[C@]2(C)[C@@H]4[C@H](C[C@@H]32)O[C@]2(CC[C@@H](C)CO2)[C@H]4C)C1 [HECOGENIN ACETATE],–,2.21
CC[n+]1c(-c2ccccc2)c2cc(N)ccc2c2ccc(N)cc21 [HOMIDIUM BROMIDE],–,1.694
CCN(CC)CCNc1ccc(CO)c2sc3ccccc3c(=O)c12 [HYCANTHONE],–,2.896
"NC(=O)NO [Hydroxyurea (Cytodrox), Hydroxyurea]",1.988,–
COc1cc(OC)c(C=C2C(O)=Nc3ccccc32)c(OC)c1 [IC 261],–,1.651
CCC(C)n1ncn(-c2ccc(N3CCN(c4ccc(OCC5COC(Cn6cncn6)(c6ccc(Cl)cc6Cl)O5)cc4)CC3)cc2)c1=O (stereo not shown) [ITRACONAZOLE],–,2.154

SMILES,Average Incidence SD Away [SD],Average Length SD Away [SD]
O=c1[nH]c(=O)n([C@H]2C[C@H](O)[C@@H](CO)O2)cc1I [Idoxuridin],1.798,–
"COc1cc(C(C)=O)ccc1OCCCN1CCC(c2noc3cc(F)ccc23)CC1 [Iloperidone (Fanapt), Iloperidone]",1.775,–
O=C1Nc2ccccc2/C1=C1/Nc2ccccc2/C1=N\O [Indirubin-3′-oxime],–,2.475
CCc1c2c(nc3ccc(OC(=O)N4CCC(N5CCCCC5)CC4)cc13)-c1cc3c(c(=O)n1C2)COC(=O)[C@]3(O)CC [Irinotecan],1.681,1.658
Nc1nc(N)nc(-c2cc(Cl)ccc2Cl)n1 [Irsogladine],1.543,–
CC(C)NCC(O)c1ccc(O)c(O)c1 (stereo not shown) [Isoprenaline hydrochloride],1.623,–
"COc1cc2c(cc1OC)CC(=O)N(CCCN(C)C[C@H]1Cc3cc(OC)c(OC)cc31)CC2 [Ivabradine HCl (Procoralan), Ivabradine HCl]",1.611,–
CC(=O)O[C@H]1C[C@@H](OC(C)=O)C(C)(C)[C@@H]2C[C@@H](OC(C)=O)[C@]3(C)[C@H](CC[C@@]4(C)[C@H](c5ccoc5)OC(=O)[C@H]5O[C@@]534)[C@@]12C [KHIVORIN],–,1.723
O=C1Cc2c([nH]c3ccc(Br)cc23)-c2ccccc2N1 [Kenpaullone],–,3.28
CC(=O)C(=Cc1ccccc1)CC(=O)O [LEVULINIC ACID 3-BENZYLIDENYL-],–,2.3613
c1ccc(-c2[nH]ncc2-c2ccnc3ccccc23)nc1 [LY 364947],1.591,–
O=C(C[S+]([O-])Cc1ccco1)NC/C=C\COc1cc(CN2CCCCC2)ccn1 (stereo not shown) [Lafutidine],1.619,–
C[C@@H]1CC(=O)NN=C1c1ccc(NN=C(C#N)C#N)cc1 [Levosimendan],1.52,–
CC1(C)Cc2c(-c3ccccc3)c(-c3ccc(Cl)cc3)c(CC(=O)O)n2C1 [Licofelone],1.936,–
"O=NN(CCCl)C(=O)NC1CCCCC1 [Lomustine (CeeNU), Lomustine]",2.228,–
O=C(O)c1nn(Cc2ccc(Cl)cc2Cl)c2ccccc12 [Lonidamine],–,2.357
CCOC(=O)N1CCC(=C2c3ccc(Cl)cc3CCc3cccnc32)CC1 [Loratidine],–,2.261
S=c1nc[nH]c2nc[nH]c12 [MERCAPTOPURINE],–,1.722
CON [METHOXYAMINE HYDROCHLORIDE],–,1.91
Oc1ccc(OCc2ccccc2)cc1 [MONOBENZONE],–,1.914
CC(=O)O[C@]1(C(C)=O)CC[C@H]2[C@@H]3C[C@H](C)C4=CC(=O)CC[C@]4(C)[C@H]3CC[C@@]21C [Medroxyprogesterone acetate],2.659,–
O=C([O-])c1ccccc1-c1c2cc(Br)c(=O)cc-2oc2[c]([Hg+])c([O-])c(Br)cc12.[Na+].[Na+].[OH-] [Merbromin],–,5.067
CN(Cc1cnc2nc(N)nc(N)c2n1)c1ccc(C(=O)N[C@@H](CCC(=O)O)C(=O)O)cc1 [Methotrexate],2.424,3.097
COCCc1ccc(OCC(O)CNC(C)C)cc1 (stereo not shown) [Metoprolol tartrate],1.601,–
"Cc1ncc([N+](=O)[O-])n1CCO [Metronidazole (Flagyl), Metronidazole]",2.092,–
"CN1CCN2c3ncccc3Cc3ccccc3C2C1 (stereo not shown) [Mirtazapine (Remeron Avanza), Mirtazapine]",1.681,–

# Same assay, conditions: 10 μM, 16 hours; hit = 1.5 standard deviation above population average, at least 40% viability
row,SMILES,classification as hit increasing cilia length in the screen
1,CN(Cc1cnc2nc(N)nc(N)c2n1)c1ccc(C(=O)N[C@@H](CCC(=O)O)C(=O)O)cc1 [Methotrexate],listed as hits

# — patent publication US20190015423A1, “REGULATION OF GENE EXPRESSION BY MODULATING PRIMARY CILIA LENGTH” (THE TRUSTEES OF COLUMBIA UNIVERSITY IN THE CITY OF NEW YORK, priority 2016, published 2019)
